From patent US20060116316A1, “Heterocyclic inhibitors of IRES-mediated translation and methods of use thereof” (priority 2004, published 2006)
Where a SMILES comes first, the peptide text is derived from it.

Test system: HCV IRES
Experiment: HCV IRES reporter FACS assay (GFP expression ratio, intein-expressed cyclic peptides)
Format: cell-based, Hepatitis C virus
Settings: ratio at least 1.20 = significant activity
Description: [The source words this procedure for another variant and says it was used here with some conditions changed.] Cells producing libraries of cyclic 3-mers and 4-mers (i.e., libraries of cyclic peptides that contain 3 or 4 amino acid residues) were constructed using methods identical to those of Kinsella et al (J Biol. Chem. 2002 277:37512-8), except different oligonucleotides were used for library construction. Clones from this library were screened in an assay shown in FIG. 2 to identify IRES-inhibitory compounds.
In summary, separate cyclic 3-mer and cyclic 4-mer libraries were constructed such that each peptide of the library contained a fixed Ser, Thr or Cys residue (at position 1) and the remaining residues were randomized. For library construction, degenerate oligonucleotides of sequence 5′-[…](AGC/ACC/TGC)(NNK)2 or 3 TGCATCAGCGGCGACAG-3′ were annealed to the primer 5′-[…]-3′ and extended using the Expand PCR kit (Roche Molecular Biochemicals). The double-stranded DNA insert was digested and inserted into the BclI/DrdI sites of DnaBO-e-BFP (ACUC). The plasmid libraries were electroporated into ElectroMAX DH 10B competent E. coli (Invitrogen) for amplification on LB+amp agar medium. […] Expression of the intein is detected by detecting BFP expression. Expression of the intein (and the cyclic peptide produced by the intein) is suppressible by addition of exogenous doxycycline. The amino acid sequence of the junctions of the intein scaffold used in making the 3-mer library is Val-His-Asn-X3 or 4-Cys-Ile-Ser, where X3 or 4 are three or four contiguous amino acids.
Infectious retroviral particles were produced by transfection of 15 µg of each library (as described in Swift et al, (1999). Current Protocols in Immunology Vol. 10.17C, pp. 1-17, Freeman, N.Y.) into approximately 5×10^6 Phoenix-A packaging cells. Each resulting library of retroviral particles was then used to infect 5×10^6 BJAB-S3A11 reporter cells and a FACS based selection was carried out to isolate cells with reduced HCV-IRES reporter output.
In detail, referring to FIG. 2, the cells used in the assay contained an IRES-dependent reporter system. […]. Also present in the cells is a control reporter system for assaying the activity of 5′ cap-dependent translation (the mechanism by which most cellular proteins are normally translated). The control reporter system contains a CMV promoter that drives the transcription of an RNA containing 5′ cap-dependent UTR, operably linked to an RNA encoding RFP (red fluorescent protein). Translation of RFP is dependent on the activity of the 5′ cap-dependent UTR.
Cells containing both the cyclic compound library and the reporter systems described above were first screened for survival upon exposure to diptheria toxin, and then screened by FACS to identify cells that had reduced GFP expression, as compared to RFP expression. Cells were expanded and replica-plated and grown in the presence or absence of dox (100 ng/ml) for four days. Plates were stimulated with IL-4 and GFP expression (relative to RFP) was monitored by flow cytometry. The IRES-inhibitory activity of a peptide is evaluated by calculating the ratio of the geometric mean of GFP expression of peptide positive cells (“peptide pos+” cells i.e., cells not contacted with dox) to the geometric mean of GFP expression of peptide negative cells (“peptide pos−” cells i.e., cells contacted with dox).
Cyclic peptides assigned higher scores have a greater IRES-inhibitory activity.
The number shown in parentheses after each of the amino acid sequences is the IRES-inhibitory activity ratio, as discussed above.

[1] = BJAB-S3A11 reporter cells, +/- dox 100 ng/ml four days, library intein junction Val-His-Asn-X1X2X3-Cys-Ile-Ser
[2] = 3-mers from mutant intein scaffold, junction Val-His-Asn-X1X2X3-Trp-Ile-Ser
[3] = 3-mers from mutant intein scaffold, junction Val-His-Tyr-X1X2X3-Cys-Ile-Ser

Structure (SMILES)	IRES-inhibitory activity ratio (geometric mean GFP expression, peptide positive cells / peptide negative cells) [1]	IRES-inhibitory activity ratio (geometric mean GFP expression, peptide positive cells / peptide negative cells) [2]	also measured
C[C@@H]1NC(=O)[C@H](CS)NC(=O)[C@H](Cc2c[nH]c3ccccc23)NC1=O [cyclo-CAW, cyclo[CAW]] (cyclo(Ala-Trp-Cys))	1.37	–	–
CSCC[C@@H]1NC(=O)[C@H](CS)NC(=O)[C@H](Cc2c[nH]c3ccccc23)NC1=O [cyclo-CMW, cyclo[CMW]] (cyclo(Cys-Met-Trp))	1.29	–	–
O=C1N[C@@H](Cc2c[nH]c3ccccc23)C(=O)N[C@@H](Cc2c[nH]c3ccccc23)C(=O)N[C@H]1CS [cyclo-CWW, cyclo[CWW]] (cyclo(Cys-Trp-Trp))	1.41	–	–
O=C1N[C@@H](Cc2ccc(O)cc2)C(=O)N[C@@H](Cc2c[nH]c3ccccc23)C(=O)N[C@H]1CS [cyclo-CYW, cyclo[CYW]] (cyclo(Cys-Tyr-Trp))	1.3	–	–
C[C@@H]1NC(=O)[C@H](CO)NC(=O)[C@H](Cc2ccccc2)NC1=O [cyclo-SAF, cyclo[SAF]] (cyclo(Ala-Phe-Ser))	–	1.88	–
CCC(C)[C@@H]1NC(=O)[C@H](C)NC(=O)[C@H](CO)NC1=O (stereo partly shown) [cyclo-SAI, cyclo[SAI]]	–	1.30	–
C[C@@H]1NC(=O)[C@H](CO)NC(=O)[C@H](CCCCN)NC1=O [cyclo-SAK, cyclo[SAK]] (cyclo(Ala-Lys-Ser))	–	1.3	–
CSCC[C@@H]1NC(=O)[C@H](C)NC(=O)[C@H](CO)NC1=O [cyclo-SAM, cyclo[SAM]] (cyclo(Ala-Met-Ser))	–	–	IRES-inhibitory activity ratio (geometric mean GFP expression, peptide positive cells / peptide negative cells) [3]: 1.36
C[C@@H]1NC(=O)[C@H](CO)NC(=O)[C@H](CCC(N)=O)NC1=O [cyclo-SAQ, cyclo[SAQ]] (cyclo(Ala-Gln-Ser))	–	1.4	–
C[C@@H]1NC(=O)[C@H](CO)NC(=O)[C@H]([C@@H](C)O)NC1=O [cyclo-SAT, cyclo[SAT]] (cyclo(Ala-Thr-Ser))	–	–	IRES-inhibitory activity ratio (geometric mean GFP expression, peptide positive cells / peptide negative cells) [3]: 1.21
CC(C)[C@@H]1NC(=O)[C@H](C)NC(=O)[C@H](CO)NC1=O [cyclo-SAV, cyclo[SAV]] (cyclo(Ala-Val-Ser))	–	–	IRES-inhibitory activity ratio (geometric mean GFP expression, peptide positive cells / peptide negative cells) [3]: 2.65
C[C@@H]1NC(=O)[C@H](CO)NC(=O)[C@H](Cc2c[nH]c3ccccc23)NC1=O [cyclo-SAW, cyclo[SAW]] (cyclo(Ala-Trp-Ser))	1.21	–	–
C[C@@H]1NC(=O)[C@H](CO)NC(=O)[C@H](Cc2ccc(O)cc2)NC1=O [cyclo-SAY, cyclo[SAY]] (cyclo(Ala-Tyr-Ser))	–	–	IRES-inhibitory activity ratio (geometric mean GFP expression, peptide positive cells / peptide negative cells) [3]: 1.95
O=C1N[C@@H](CS)C(=O)N[C@@H](Cc2c[nH]c3ccccc23)C(=O)N[C@H]1CO [cyclo-SCW, cyclo[SCW]] (cyclo(Cys-Trp-Ser))	–	2.01	–
CC(C)[C@@H]1NC(=O)[C@H](CC(=O)O)NC(=O)[C@H](CO)NC1=O [cyclo-SDV, cyclo[SDV]] (cyclo(Asp-Val-Ser))	–	–	IRES-inhibitory activity ratio (geometric mean GFP expression, peptide positive cells / peptide negative cells) [3]: 1.23
O=C(O)C[C@@H]1NC(=O)[C@H](CO)NC(=O)[C@H](Cc2c[nH]c3ccccc23)NC1=O [cyclo-SDW, cyclo[SDW]] (cyclo(Asp-Trp-Ser))	–	1.85	–

Structure (SMILES)	IRES-inhibitory activity ratio (geometric mean GFP expression, peptide positive cells / peptide negative cells) [1]	IRES-inhibitory activity ratio (geometric mean GFP expression, peptide positive cells / peptide negative cells) [2]	also measured
CC(C)[C@@H]1NC(=O)[C@H](CCC(=O)O)NC(=O)[C@H](CO)NC1=O [cyclo-SEV, cyclo[SEV]] (cyclo(Glu-Val-Ser))	–	–	IRES-inhibitory activity ratio (geometric mean GFP expression, peptide positive cells / peptide negative cells) [3]: 1.93
O=C(O)CC[C@@H]1NC(=O)[C@H](CO)NC(=O)[C@H](Cc2c[nH]c3ccccc23)NC1=O [cyclo-SEW, cyclo[SEW]] (cyclo(Glu-Trp-Ser))	–	2.00	–
CC(C)[C@@H]1NC(=O)[C@H](Cc2ccccc2)NC(=O)[C@H](CO)NC1=O [cyclo-SFV, cyclo[SFV]]	1.33	–	–
O=C1N[C@@H](Cc2ccccc2)C(=O)N[C@@H](Cc2c[nH]c3ccccc23)C(=O)N[C@H]1CO [cyclo-SFW, cyclo[SFW]] (cyclo(Phe-Trp-Ser))	1.55	–	–
N=C(N)NCCC[C@@H]1NC(=O)[C@H](Cc2c[nH]c3ccccc23)NC(=O)[C@H](Cc2ccccc2)NC(=O)[C@H](CO)NC1=O [cyclo-SFWR, cyclo[SFWR]] (cyclo(FWRS))	–	–	IRES-inhibitory activity ratio (geometric mean GFP expression, peptide positive cells / peptide negative cells) (4-mers from mutant intein scaffold, junction Val-His-Asn-X1X2X3X4-Cys-Ser): 1.49
O=C1CNC(=O)[C@H](CO)NC(=O)[C@H](Cc2c[nH]c3ccccc23)N1 [cyclo-SGW, cyclo[SGW]] (cyclo(Gly-Trp-Ser))	–	1.94	–
CC(C)[C@@H]1NC(=O)[C@H](Cc2cnc[nH]2)NC(=O)[C@H](CO)NC1=O [cyclo-SHV, cyclo[SHV]] (cyclo(His-Val-Ser))	–	–	IRES-inhibitory activity ratio (geometric mean GFP expression, peptide positive cells / peptide negative cells) [3]: 1.91
O=C1N[C@@H](Cc2cnc[nH]2)C(=O)N[C@@H](Cc2c[nH]c3ccccc23)C(=O)N[C@H]1CO [cyclo-SHW, cyclo[SHW]] (cyclo(His-Trp-Ser))	–	2.26	–
CCC(C)[C@@H]1NC(=O)[C@H](CO)NC(=O)[C@H](C(C)C)NC1=O (stereo partly shown) [cyclo-SIV, cyclo[SIV]]	1.4	–	–
CCC(C)[C@@H]1NC(=O)[C@H](CO)NC(=O)[C@H](Cc2c[nH]c3ccccc23)NC1=O (stereo partly shown) [cyclo-SIW, cyclo[SIW]]	1.36	–	–
CC(C)[C@@H]1NC(=O)[C@H](CCCCN)NC(=O)[C@H](CO)NC1=O [cyclo-SKV, cyclo[SKV]] (cyclo(Lys-Val-Ser))	1.38	–	–
CC(C)C[C@@H]1NC(=O)[C@H](CO)NC(=O)[C@H](Cc2c[nH]c3ccccc23)NC1=O [cyclo-SLW, cyclo[SLW]] (cyclo(Leu-Trp-Ser))	1.27	–	–
CSCC[C@@H]1NC(=O)[C@H](CO)NC(=O)[C@H](C(C)C)NC1=O [cyclo-SMV, cyclo[SMV]] (cyclo(Met-Val-Ser))	1.36	–	–
CSCC[C@@H]1NC(=O)[C@H](CO)NC(=O)[C@H](Cc2c[nH]c3ccccc23)NC1=O [cyclo-SMW, cyclo[SMW]] (cyclo(Met-Trp-Ser))	1.28	–	–
NC(=O)C[C@@H]1NC(=O)[C@H](CO)NC(=O)[C@H](Cc2c[nH]c3ccccc23)NC1=O [cyclo-SNW, cyclo[SNW]] (cyclo(Asn-Trp-Ser))	–	2.10	–
